Like-named read-outs stand apart in the source and are kept apart here.
How the values were obtained:
Type in all cases: binding
[1] = target: T1, HeLa cell extract proteins (Homo sapiens, UniProt P53634)
T1 construct: endogenous in cells; host or cells: HeLa cell extract

[2] = target: T2, HeLa cell extract proteins (Homo sapiens, UniProt P12956)
T2 construct: endogenous in cells; host or cells: HeLa cell extract

[3] = target: T3, HeLa cell extract proteins (Homo sapiens, UniProt Q93100)
T3 construct: endogenous in cells; host or cells: HeLa cell extract
T3 sequence (Q93100 1-1093): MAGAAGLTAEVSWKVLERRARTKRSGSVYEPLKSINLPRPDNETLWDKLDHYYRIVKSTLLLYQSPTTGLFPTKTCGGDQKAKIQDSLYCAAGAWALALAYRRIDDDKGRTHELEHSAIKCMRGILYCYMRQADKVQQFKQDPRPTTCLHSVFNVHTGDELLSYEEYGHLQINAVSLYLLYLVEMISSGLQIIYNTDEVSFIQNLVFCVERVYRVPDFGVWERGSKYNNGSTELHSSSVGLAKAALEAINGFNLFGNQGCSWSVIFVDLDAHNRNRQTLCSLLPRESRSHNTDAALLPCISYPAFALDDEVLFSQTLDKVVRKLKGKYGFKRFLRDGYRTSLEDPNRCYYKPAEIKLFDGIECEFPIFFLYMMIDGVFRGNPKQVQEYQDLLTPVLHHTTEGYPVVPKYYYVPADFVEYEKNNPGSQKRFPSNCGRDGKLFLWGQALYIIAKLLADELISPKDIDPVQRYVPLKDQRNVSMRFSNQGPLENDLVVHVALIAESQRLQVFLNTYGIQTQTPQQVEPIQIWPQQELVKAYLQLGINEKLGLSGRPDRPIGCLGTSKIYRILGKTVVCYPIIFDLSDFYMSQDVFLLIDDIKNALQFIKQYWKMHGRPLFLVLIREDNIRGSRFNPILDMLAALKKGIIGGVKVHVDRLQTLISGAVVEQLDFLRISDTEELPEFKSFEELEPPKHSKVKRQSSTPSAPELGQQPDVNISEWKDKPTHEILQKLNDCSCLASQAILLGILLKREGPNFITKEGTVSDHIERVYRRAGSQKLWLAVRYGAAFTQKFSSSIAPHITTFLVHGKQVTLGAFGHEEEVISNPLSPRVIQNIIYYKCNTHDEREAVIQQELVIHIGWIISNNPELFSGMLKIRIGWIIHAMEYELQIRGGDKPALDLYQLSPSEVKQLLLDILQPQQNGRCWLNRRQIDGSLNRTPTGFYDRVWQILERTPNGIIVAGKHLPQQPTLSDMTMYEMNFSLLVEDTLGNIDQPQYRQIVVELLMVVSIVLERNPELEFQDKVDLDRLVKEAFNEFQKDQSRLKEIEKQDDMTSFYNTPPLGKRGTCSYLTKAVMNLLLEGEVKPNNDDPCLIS

[4] = target: T4, HeLa cell extract proteins (Homo sapiens, UniProt P08559)
T4 construct: endogenous in cells; host or cells: HeLa cell extract
T4 sequence (P08559 30-390): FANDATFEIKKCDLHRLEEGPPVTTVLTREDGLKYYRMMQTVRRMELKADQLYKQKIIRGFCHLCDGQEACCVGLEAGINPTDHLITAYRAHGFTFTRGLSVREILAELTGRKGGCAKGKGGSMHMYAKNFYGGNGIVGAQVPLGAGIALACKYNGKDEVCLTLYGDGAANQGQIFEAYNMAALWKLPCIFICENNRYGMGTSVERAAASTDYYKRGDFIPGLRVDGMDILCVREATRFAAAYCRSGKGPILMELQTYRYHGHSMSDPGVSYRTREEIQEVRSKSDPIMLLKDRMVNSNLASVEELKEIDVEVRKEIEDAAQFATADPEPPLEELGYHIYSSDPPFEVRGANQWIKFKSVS

[5] = target: T5, HeLa cell extract proteins (Homo sapiens, UniProt P53999)
T5 construct: endogenous in cells; host or cells: HeLa cell extract

[6] = target: T6, HeLa cell extract proteins (Homo sapiens, UniProt Q9NQX3)
T6 construct: endogenous in cells; host or cells: HeLa cell extract
T6 sequence (Q9NQX3 1-736): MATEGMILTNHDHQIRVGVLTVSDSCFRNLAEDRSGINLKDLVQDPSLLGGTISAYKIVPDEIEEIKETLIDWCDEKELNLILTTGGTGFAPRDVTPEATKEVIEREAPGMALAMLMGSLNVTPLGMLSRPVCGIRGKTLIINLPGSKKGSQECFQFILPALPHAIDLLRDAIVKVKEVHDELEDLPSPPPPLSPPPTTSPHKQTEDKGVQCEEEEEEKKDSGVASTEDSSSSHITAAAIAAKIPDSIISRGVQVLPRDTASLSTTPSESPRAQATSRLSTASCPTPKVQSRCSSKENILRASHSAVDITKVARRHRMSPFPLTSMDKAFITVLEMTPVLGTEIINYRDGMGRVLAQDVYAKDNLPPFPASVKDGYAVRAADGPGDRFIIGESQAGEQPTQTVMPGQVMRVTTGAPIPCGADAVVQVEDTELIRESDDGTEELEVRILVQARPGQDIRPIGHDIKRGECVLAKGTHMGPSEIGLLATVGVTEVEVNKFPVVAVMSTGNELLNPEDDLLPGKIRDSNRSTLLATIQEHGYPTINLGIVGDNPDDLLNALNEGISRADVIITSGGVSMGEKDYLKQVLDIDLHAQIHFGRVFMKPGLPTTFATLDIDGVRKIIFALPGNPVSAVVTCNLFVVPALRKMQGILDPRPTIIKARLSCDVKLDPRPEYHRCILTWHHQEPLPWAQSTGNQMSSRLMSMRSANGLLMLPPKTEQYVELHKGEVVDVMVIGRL

[7] = target: T7, HeLa cell extract proteins (Homo sapiens, UniProt Q01650)
T7 construct: endogenous in cells; host or cells: HeLa cell extract

[8] = target: T8, HeLa cell extract proteins (Homo sapiens, UniProt P11142)
T8 construct: endogenous in cells; host or cells: HeLa cell extract

[9] = HeLa, protein CTSC (DIPEPTIDYL-PEPTIDASE 1 PRECURSOR)

T8 sequence (P11142 whole entry): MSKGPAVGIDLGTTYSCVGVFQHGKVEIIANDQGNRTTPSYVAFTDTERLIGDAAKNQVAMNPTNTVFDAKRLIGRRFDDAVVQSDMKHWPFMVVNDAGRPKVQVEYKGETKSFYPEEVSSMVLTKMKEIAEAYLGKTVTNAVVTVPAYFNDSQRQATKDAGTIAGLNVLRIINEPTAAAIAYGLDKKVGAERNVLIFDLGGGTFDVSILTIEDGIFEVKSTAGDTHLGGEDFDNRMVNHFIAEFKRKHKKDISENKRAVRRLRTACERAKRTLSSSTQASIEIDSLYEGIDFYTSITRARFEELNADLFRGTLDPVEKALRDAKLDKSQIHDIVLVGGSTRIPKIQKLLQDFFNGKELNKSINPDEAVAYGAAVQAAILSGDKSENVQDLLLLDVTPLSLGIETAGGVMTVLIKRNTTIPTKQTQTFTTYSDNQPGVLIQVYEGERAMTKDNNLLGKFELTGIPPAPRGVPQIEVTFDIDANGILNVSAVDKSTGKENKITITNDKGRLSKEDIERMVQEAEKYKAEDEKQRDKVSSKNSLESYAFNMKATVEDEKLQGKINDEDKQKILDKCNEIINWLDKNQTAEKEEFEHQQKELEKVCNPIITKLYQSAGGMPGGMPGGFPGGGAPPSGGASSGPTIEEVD
T1 sequence (P53634 25-463): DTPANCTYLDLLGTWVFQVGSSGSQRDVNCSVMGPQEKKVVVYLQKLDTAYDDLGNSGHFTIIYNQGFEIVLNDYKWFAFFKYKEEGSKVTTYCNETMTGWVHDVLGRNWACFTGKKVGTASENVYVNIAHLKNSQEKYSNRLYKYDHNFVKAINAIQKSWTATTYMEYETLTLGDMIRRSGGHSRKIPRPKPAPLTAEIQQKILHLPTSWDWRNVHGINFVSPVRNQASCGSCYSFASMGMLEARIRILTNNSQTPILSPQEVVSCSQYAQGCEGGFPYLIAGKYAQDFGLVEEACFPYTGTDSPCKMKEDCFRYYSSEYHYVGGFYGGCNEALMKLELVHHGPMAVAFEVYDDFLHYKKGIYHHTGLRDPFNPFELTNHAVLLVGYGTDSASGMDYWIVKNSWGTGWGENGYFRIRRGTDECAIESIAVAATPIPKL
T2 sequence (P12956 whole entry): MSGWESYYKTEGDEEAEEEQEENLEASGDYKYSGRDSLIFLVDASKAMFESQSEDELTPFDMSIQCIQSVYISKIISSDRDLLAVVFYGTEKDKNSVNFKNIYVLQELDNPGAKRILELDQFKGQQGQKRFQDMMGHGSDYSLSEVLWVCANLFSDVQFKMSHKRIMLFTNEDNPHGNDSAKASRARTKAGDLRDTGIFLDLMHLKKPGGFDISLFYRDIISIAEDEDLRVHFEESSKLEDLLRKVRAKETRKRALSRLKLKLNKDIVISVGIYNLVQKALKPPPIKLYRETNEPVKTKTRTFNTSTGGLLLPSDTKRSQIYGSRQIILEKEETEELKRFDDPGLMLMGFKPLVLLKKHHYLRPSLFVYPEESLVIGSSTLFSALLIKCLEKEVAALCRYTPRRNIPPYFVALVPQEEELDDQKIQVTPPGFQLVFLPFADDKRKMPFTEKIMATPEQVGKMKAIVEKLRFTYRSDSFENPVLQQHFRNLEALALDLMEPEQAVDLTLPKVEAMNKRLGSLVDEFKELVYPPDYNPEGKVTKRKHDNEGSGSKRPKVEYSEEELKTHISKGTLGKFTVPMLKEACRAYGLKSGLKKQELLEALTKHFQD
T7 sequence (Q01650 whole entry): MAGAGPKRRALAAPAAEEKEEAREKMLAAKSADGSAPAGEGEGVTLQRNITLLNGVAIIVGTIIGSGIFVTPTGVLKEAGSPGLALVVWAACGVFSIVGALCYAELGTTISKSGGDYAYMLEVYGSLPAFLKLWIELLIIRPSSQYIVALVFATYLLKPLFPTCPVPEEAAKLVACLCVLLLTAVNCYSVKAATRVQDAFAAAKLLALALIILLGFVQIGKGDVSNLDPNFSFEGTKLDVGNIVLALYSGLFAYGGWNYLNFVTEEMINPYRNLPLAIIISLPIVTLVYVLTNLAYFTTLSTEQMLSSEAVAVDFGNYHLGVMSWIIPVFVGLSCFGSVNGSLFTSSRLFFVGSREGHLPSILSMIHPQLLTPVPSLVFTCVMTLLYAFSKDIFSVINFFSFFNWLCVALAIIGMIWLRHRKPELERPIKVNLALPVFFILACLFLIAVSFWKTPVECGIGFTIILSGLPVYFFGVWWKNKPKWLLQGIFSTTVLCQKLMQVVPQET

Row | SMILES | fold changes relative to vehicle control ([1]; protein CTSC, HeLa) | fold changes relative to vehicle control ([2]; protein XRCC6, HeLa) | fold changes relative to vehicle control ([3]; captured protein PHKB, HeLa) | fold changes relative to vehicle control ([4]; HeLa, protein PDHA1) | fold changes relative to vehicle control ([5]; protein SUB1, HeLa) | fold changes relative to vehicle control ([6]; protein GPHN, HeLa) | fold changes relative to vehicle control ([7]; HeLa, protein SLC7A5) | fold changes relative to vehicle control ([8]; protein HSPA8, HeLa) | fold changes relative to vehicle control [1, 9] | fold changes relative to vehicle control ([2]; HeLa, protein XRCC6) | fold changes relative to vehicle control ([3]; HeLa, protein PHKB) | fold changes relative to vehicle control ([4]; HeLa, captured protein PDHA1) | fold changes relative to vehicle control ([5]; HeLa, protein SUB1) | fold changes relative to vehicle control ([6]; HeLa, captured protein GPHN) | fold changes relative to vehicle control ([7]; HeLa, captured protein SLC7A5) | fold changes relative to vehicle control ([8]; HeLa, captured protein HSPA8) | other results
1 | Nc1nc2cccc(-c3ccccc3)c2n1Cc1ccc(Cl)c(Cl)c1 [compound 3] | 0.86 | 0.92 | 1.19 | 1.07 | 1.13 | 0.96 | 1.06 | 1 | – | – | – | – | – | – | – | – | –
2 | CCCCCCOc1ccc(Cc2cnc(N)nc2N)cc1 [compound 1] | 0.89 | 1.13 | 0.86 | 1.02 | 0.91 | 0.94 | 0.97 | 0.99 | – | – | – | – | – | – | – | – | –
3 | NCCCNc1ccc(C(=O)NC(CCC(=O)O)C(=O)O)cc1 (centres unmarked) [compound 7] | – | – | – | – | – | – | – | – | 0.97 | 0.92 | 1.08 | 0.99 | 0.87 | 1.03 | 0.97 | 0.99 | –
4 | CCCCCCOc1cccc(Cc2cnc(N)nc2N)c1 [compound 2] | 0.95 | 1.93 | 1.09 | 0.4 | 0.99 | 0.93 | 1.01 | 1.11 | – | – | – | – | – | – | – | – | –
5 | NCCOCCOCC(=O)Nc1nc2ncc(CNc3ccc(C(=O)NC(CCC(=O)O)C(=O)O)cc3)nc2c(=O)[nH]1 (centres unmarked) [compound 6] | – | – | – | – | – | – | – | – | 0.82 | 1.09 | 1.04 | 1 | 1.03 | 0.99 | 0.76 | 0.98 | –
6 | Nc1nc2[nH]cc(CCc3ccc(C(=O)N[C@@H](CCC(=O)O)C(=O)O)cc3)c2c(=O)[nH]1 [PTX, pemetrexed] | – | – | – | – | – | – | – | – | – | – | – | – | – | – | – | – | fold changes relative to vehicle control [1]: 0.84; fold changes relative to vehicle control [2]: 1.02; fold changes relative to vehicle control [3]: 1.02; fold changes relative to vehicle control [4]: 1.04; fold changes relative to vehicle control [5]: 1.08; fold changes relative to vehicle control [6]: 0.83; fold changes relative to vehicle control [7]: 0.8; fold changes relative to vehicle control [8]: 0.99
7 | Nc1nc2c(c(=O)[nH]1)N(C=O)C(CNc1ccc(C(=O)N[C@@H](CCC(=O)O)C(=O)O)cc1)CN2 (some centres unmarked) [LEU, leucovorin] | – | – | – | – | – | – | – | – | 1.03 | 0.96 | 1 | 1.06 | 0.7 | 0.81 | 1.02 | 1.07 | –
